This passage reports Activity results from ChEMBL document CHEMBL3351474, “Ambidalmines A-E and ambidimerine F: bioactive dihydrobenzophenanthridine alkaloids from Corydalis ambigua var. amurensis” (2014).

Structures are written as SMILES.

Format in all cases: functional
In assay [1] the test system is H9c2. Put plainly: Cytoprotective activity against ischemia-hypoxia injury in rat H9c2 cells assessed as increase in cell viability at 10 uM by MTT assay relative to control. (Tetrazolium assays rely on reduction of a dye to a coloured formazan, in cell work by metabolically active cells.)
In assay [2] the test system is H9c2. Description: Cytoprotective activity against ischemia-hypoxia injury in rat H9c2 cells assessed as increase in cell viability at 0.01 uM by MTT assay relative to control.
For assay [3], the system named is H9c2. Put plainly: Cytoprotective activity against ischemia-hypoxia injury in rat H9c2 cells assessed as increase in cell viability at 0.1 uM by MTT assay relative to control.
Assay [4] has as its system H9c2. Description: Cytoprotective activity against ischemia-hypoxia injury in rat H9c2 cells assessed as increase in cell viability at 1 uM by MTT assay relative to control.

Turning to `COc1cc2c(OC)cc3c(c2cc1OC)N(C)[C@H](CO)c1c2c(cc(OC)c1-3)OCO2`, the Activity in the assay with H9c2 [1] stood at 36.62%; in the assay with H9c2 [2], 41.38%; in the assay with H9c2 [3] it was 46.01%; in the assay with H9c2 [4], 50.74%.
Regarding `COc1cc2c(OC)cc3c(c2cc1OC)N(C)[C@H](CC(=O)C[C@H]1c2c4c(cc(OC)c2-c2cc(OC)c5cc(OC)c(OC)cc5c2N1C)OCO4)c1c2c(cc(OC)c1-3)OCO2`, the results for the Activity with H9c2 [1], in the assay on H9c2 [3] and in the assay on H9c2 [4] were 44.75%, 50.56% and 44.26%, respectively.
As for `COc1cc2c(OC)cc3c(c2cc1OC)N(C)[C@@H](CC(C)=O)c1c2c(cc(OC)c1-3)OCO2`, the Activity in the assay on H9c2 [1] came to 44.27%; in the assay with H9c2 [2], 53.88%; in the assay on H9c2 [3], 50.09%; in the assay on H9c2 [4], 45.29%.
For `COc1cc2c(OC)cc3c(c2cc1OC)N(C)[C@@H](CO)c1c2c(cc(OC)c1-3)OCO2`, the Activity in the assay on H9c2 [1] is 32.71%; in the assay with H9c2 [2] it was 47.54%; with H9c2 [3], 54.72%; in the assay on H9c2 [4], 49.42%.
On to `COc1cc2c(OC)cc3c(c2cc1OC)N(C)[C@@H](CC(=O)C[C@H]1c2c4c(cc(OC)c2-c2cc(OC)c5cc(OC)c(OC)cc5c2N1C)OCO4)c1c2c(cc(OC)c1-3)OCO2`, for which the Activity in the assay on H9c2 [1] worked out at 27.48%; with H9c2 [2], 40.26%; with H9c2 [3], 41.02%; in the assay on H9c2 [4], 36.59%.
`COc1cc2c(OC)cc3c(c2cc1OC)N(C)[C@H](CC(C)=O)c1c2c(cc(OC)c1-3)OCO2`: the Activity was determined as 29.1% in the assay with H9c2 [1], 42.15% in the assay with H9c2 [2], 40.68% in the assay on H9c2 [3] and 37.74% in the assay with H9c2 [4].
Consider `COc1cc2c(OC)cc3c(c2cc1OC)N(C)C(CC(=O)CC(C)(C)O)c1c2c(cc(OC)c1-3)OCO2` (racemic), for which the Activity in the assay with H9c2 [1] turned out to be 32.63%; with H9c2 [2], 41.8%; in the assay on H9c2 [3] it was 41.47%; in the assay with H9c2 [4] it was 44.75%.
